Measurements reported in US20240252496A1, “SELECTIVE HYPOTHALAMUS PERMEABLE HDAC6 INHIBITORS FORTREATMENT OF LEPTIN-RESISTANT OBESITY” (The Children’s Medical Center Corporation, priority 2022, published 2024).

Columns and labels:
[1] = test system: DIO mice; assay: Acute leptin co-treatment in DIO mice (body weight, food intake 15 h); assay type: in vivo; details: for body weight, inhibitor alone: 3 days pretreatment i.p., ACY775 10, ricolinostat 25 mg/kg; for food intake, inhibitor alone: ACY775 10, ricolinostat 25 mg/kg i.p.; for body weight 15 h after leptin in inhibitor-pretreated mice / food intake 15 h after leptin in inhibitor-pretreated mice: leptin 1 mg/kg i.p., ACY775 10, ACY738 50, ricolinostat 25 mg/kg/day i.p.
Method: DIO mice were pretreated with ACY775 (10 mg/kg/day, i.p.) or vehicle for 3 days, which was followed by co-treatment with ACY775 (or vehicle) and leptin (1 mg/kg, i.p.) (or saline) (n=9 for each group), % change in body weight 15 h after leptin treatment, food intake (g) during the 15 h period after leptin treatment. The results in were reproduced in two independent experiments.
Diet induced obese (DIO) mice were pretreated with ACY775 (10 mg/kg/day, i.p.) or vehicle for 3 days, which was followed by co-treatment with ACY775 (or vehicle) and leptin (1 mg/kg, i.p.) (or saline) (n=9 for each group). Mice were evaluated for % change in body weight 15 h after leptin treatment, and food intake (g) during the 15 h period after leptin treatment.
DIO mice were pretreated with ricolinostat (25 mg/kg/day, i.p.) or vehicle for 3 days, which was followed by co-treatment with ricolinostat (or vehicle) and leptin (1 mg/kg, i.p.) (or saline) (n=32 for each group). Change in body weight 15 h after leptin treatment, and food intake (g) during the 15 h period after leptin treatment were determined. The results were reproduced in two independent experiments.

[2] = test system: HDAC6; assay: Ac-tubulin immunoblotting in HEK293 cells; assay type: cell-based
[3] = test system: STAT3^Tyr705 phosphorylation; assay: Leptin-stimulated hypothalamic STAT3 phosphorylation in DIO mice; assay type: in vivo; details: 45 min after leptin 1 mg/kg i.p., ACY775 10, ACY738 50, ricolinostat 50 mg/kg/day i.p.
Method: DIO mice were pretreated with ACY775 (10 mg/kg/day, i.p.) or vehicle for 3 days, which was followed by a last injection of ACY775 (or vehicle) in the morning of fourth day. 6 hours later mice were injected with saline or leptin (1 mg/kg, i.p.) and hypothalamus were extracted after 45 minutes following the leptin injection. Representative immunoblots for STAT3^Tyr705 phosphorylation and total STAT3 from the hypothalamus. Quantification of the ratio of p-STAT3^Tyr705 to total-STAT3 signal in the immunoblots. The results were reproduced in three independent experiments. The results were analyzed hourly.
DIO mice were pretreated with ACY775 (10 mg/kg/day, i.p.) or vehicle for 3 days, which was followed by a last injection of ACY775 (or vehicle) in the morning of fourth day. 6 hours later mice were injected with saline or leptin (1 mg/kg, i.p.) and the hypothalamus were extracted after 45 minutes following the leptin injection.
6 hours later mice were injected with saline or leptin (1 mg/kg, i.p.) and hypothalamus were extracted after 45 minutes following the leptin injection. Immunoblots for STAT3^Tyr705 phosphorylation and total STAT3 from the hypothalamus were made to quantify the ratio of p-STAT3^Tyr705 to total-STAT3 signal in the immunoblots. The results were reproduced in two independent experiments.
DIO mice were pretreated with ricolinostat (50 mg/kg/day, i.p.) or vehicle 3 days, which was followed by a last injection of ricolinostat (or vehicle) in the morning of fourth day. 6 hours later mice were injected with saline or leptin (1 mg/kg, i.p.) and the hypothalamus were extracted after 45 minutes following the leptin injection. Immunoblots were performed for STAT3^Tyr705 phosphorylation and total STAT3 from the hypothalamus. The ratio of p-STAT3^Tyr705 to total STAT3 signal in the immunoblots was quantified.

[4] = test system: DIO mice; assay: Glucose homeostasis in chronically treated DIO mice (GTT, ITT, insulin, HOMA-IR, liver H&E); assay type: in vivo; details: for blood glucose levels / glucose tolerance (GTT): after 1 week; for circulating/serum insulin levels / hepatic steatosis (liver H&E) / insulin resistance (HOMA-IR): after 3 weeks
Method: DIO mice were treated with ACY775 (10 mg/kg/day, i.p.) for 3 weeks. Daily body weight (g) of DIO mice treated with vehicle (n=17) or ACY775 (n=17) during 3 weeks of treatment was determined. Daily food intake (g) during 3 weeks of vehicle or ACY775 treatment was assessed. 24 hours' food intake per mouse during the first week of vehicle or ACY775 treatment was determined. Serum leptin (ng/ml) levels after 3 weeks of vehicle (n=24) or ACY775 (n=24) treatment was assessed. Lean mass (g), fat mass (g) and fat percentage (%) after 3 weeks of vehicle (n=17) or ACY775 (n=17) treatment measured by Dual-energy X-ray absorptiometry (DEXA) scan. DEXA scans were performed in two different cohorts. Glucose tolerance test (GTT) after 1 week of vehicle (n=33) or ACY775 (n=26) treated DIO mice was assessed. Area of curve (AOC) analysis for GTT was performed. Blood glucose (mg/dl) levels after 1 week of vehicle (n=17) or ACY775 (n=16) were assessed in treated DIO mice. Insulin tolerance test (ITT) was performed after 2 weeks of vehicle (n=31) or ACY775 (n=21) treatment of DIO mice. Serum insulin (ng/ml) levels were measured after 3 weeks of vehicle (n=22) or ACY775 (n=21) in treated DIO mice. A homeostatic model assessment of insulin resistance (HOMA-IR) was analyzed after 3 weeks of vehicle (n=14) or ACY775 (n=13) treated DIO mice. […]
Blood glucose (mg/dl) levels were measured after 1 week of vehicle (n=16) or ricolinostat (n=16) treated DIO mice. GTT after 1 week of vehicle (n=17) or ricolinostat (n=16) treatment of DIO mice was assessed. AOC analysis for GTT was performed. ITT after 2 weeks of vehicle (n=17) or ricolinostat (n=16) treated DIG mice was measured. Serum insulin (ng/ml) levels after 3 weeks of vehicle (n=8) or ricolinostat (n=8) treatment were measured in DIO mice. Liver sections from 3 weeks of vehicle or ricolinostat treated DIG mice were stained by H&E.

SMILES	body weight, inhibitor alone [1]	food intake, inhibitor alone [1]	body weight 15 h after leptin in inhibitor-pretreated mice [1]	food intake 15 h after leptin in inhibitor-pretreated mice [1]	tubulin acetylation (HDAC6 inhibitor activity) in cells [2]	leptin-stimulated hypothalamic p-STAT3^Tyr705 in inhibitor-pretreated mice [3]	insulin tolerance test (ITT) / insulin sensitivity [4]	blood glucose levels [4]	glucose tolerance (GTT) [4]	circulating/serum insulin levels [4]	hepatic steatosis (liver H&E) [4]	insulin resistance (HOMA-IR) [4]
O=C(NO)c1cnc(NC2(c3cccc(F)c3)CCCCC2)nc1 [ACY775, 2-[[1-(3-fluorophenyl)cyclohexyl]amino]-N-hydroxy-5-pyrimidinecarboxamide]	significantly decreased the bodyweight	reduced the food intake	further reduction in bodyweight	further augmented the negative effect of leptin on food intake	increases tubulin acetylation	increased significantly	significant difference between ACY775-treated mice and those treated with vehicles	significantly reduced	significantly improved glucose tolerance	significantly reduced the circulating insulin levels	almost completely abolished hepatic steatosis	significantly reduced the insulin resistance
O=C(CCCCCCNC(=O)c1cnc(N(c2ccccc2)c2ccccc2)nc1)NO [Ricolinostat]	did not decrease the bodyweight	no effect on the food intake	did not reduce the body weight	no effect on the food intake	confirmation of Ricolinstat's HDAC6 inhibitory activity	did not significantly increase STAT3^Tyr705 phosphorylation	did not improves glucose tolerance (FIG. 8M) or insulin sensitivity	did not reduce blood glucose levels	did not improves glucose tolerance	did not reduce insulin levels	no decrease in the hepatic steatosis	
O=C(NO)c1cnc(NC2(c3ccccc3)CC2)nc1 [ACY738]			significantly augmented the acute leptin-induced reduction in body weight and food intake	significantly augmented the acute leptin-induced reduction in body weight and food intake	inhibits the HDAC6 activity	substantially increased	improved insulin tolerance	significantly reduced	significant improvement of glucose homeostasis	reduced insulin levels	improved hepatic steatosis	ameliorated insulin resistance
